From the supplement of paper PMC10307832

Legend:
Experiment in all cases: relative viability (nuclei count vs DMSO), 5 days (fraction); higher = more cells survive
Crizotinib + OSI-027 = compound: C[C@@H](Oc1cc(-c2cnn(C3CCNCC3)c2)cnc1N)c1c(Cl)ccc(F)c1Cl [Crizotinib] + COc1cccc2cc(-c3nc([C@H]4CC[C@H](C(=O)O)CC4)n4ncnc(N)c34)[nH]c12 [OSI-027] (partner 0.5 µM)
In short: (§1)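 Values are medians from duplicate plates. Each reflects relative viability, defined as the nuclei count of treated wells over that of vehicle wells. Lung cancer cell lines in 1536-well plates were pin-tool dosed one day after seeding with one drug alone or with a fixed anchor-drug dose plus five library-drug doses (not always all listed) in √10 steps, then fixed, stained and imaged at 4× after 5 days.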

Olaparib + Alpelisib = compound: O=C(c1cc(Cc2n[nH]c(=O)c3ccccc23)ccc1F)N1CCN(C(=O)C2CC2)CC1 [Olaparib] + Cc1nc(NC(=O)N2CCC[C@H]2C(N)=O)sc1-c1ccnc(C(C)(C)C(F)(F)F)c1 [Alpelisib] (partner 2 µM)
In short: as §1

Crizotinib + Olaparib = compound: C[C@@H](Oc1cc(-c2cnn(C3CCNCC3)c2)cnc1N)c1c(Cl)ccc(F)c1Cl [Crizotinib] + O=C(c1cc(Cc2n[nH]c(=O)c3ccccc23)ccc1F)N1CCN(C(=O)C2CC2)CC1 [Olaparib] (partner 8 µM)
In short: as §1

Crizotinib + Pemetrexed = compound: C[C@@H](Oc1cc(-c2cnn(C3CCNCC3)c2)cnc1N)c1c(Cl)ccc(F)c1Cl [Crizotinib] + Nc1nc2[nH]cc(CCc3ccc(C(=O)N[C@@H](CCC(=O)O)C(=O)O)cc3)c2c(=O)[nH]1 [Pemetrexed] (partner 0.2 µM)
In short: as §1

Carfilzomib + Tozasertib = compound: CC(C)C[C@H](NC(=O)[C@H](CCc1ccccc1)NC(=O)CN1CCOCC1)C(=O)N[C@@H](Cc1ccccc1)C(=O)N[C@@H](CC(C)C)C(=O)[C@@]1(C)CO1 [Carfilzomib] + Cc1cc(Nc2cc(N3CCN(C)CC3)nc(Sc3ccc(NC(=O)C4CC4)cc3)n2)n[nH]1 [Tozasertib] (partner 0.1 µM)
In short: as §1

Olaparib + OSI-027 = compound: O=C(c1cc(Cc2n[nH]c(=O)c3ccccc23)ccc1F)N1CCN(C(=O)C2CC2)CC1 [Olaparib] + COc1cccc2cc(-c3nc([C@H]4CC[C@H](C(=O)O)CC4)n4ncnc(N)c34)[nH]c12 [OSI-027] (partner 0.5 µM)
In short: as §1

Work on NCI-H1793 yielded a relative viability (Crizotinib + OSI-027; first compound 0.03162 µM) of 0.256, a relative viability (Crizotinib + OSI-027; first compound 0.1 µM) of 0.278 and a relative viability (Crizotinib + OSI-027; first compound 1 µM) of 0.266. The relative viability (Olaparib + Alpelisib; first compound 0.08 µM) was 0.683, the relative viability (Olaparib + Alpelisib; first compound 0.253 µM) was 0.664 and the relative viability (Olaparib + Alpelisib; first compound 2.53 µM) was 0.768. It also gave a relative viability (Olaparib + Alpelisib; first compound 8 µM) of 0.601, a relative viability (Crizotinib + Olaparib; first compound 0.1 µM) of 0.835 and a relative viability (Crizotinib + Olaparib; first compound 1 µM) of 0.903. For the same cell line, the relative viability (Crizotinib + Pemetrexed; first compound 0.03162 µM) was 1.04, the relative viability (Crizotinib + Pemetrexed; first compound 0.1 µM) was 0.902 and the relative viability (Crizotinib + Pemetrexed; first compound 1 µM) was 1.2. The relative viability (Carfilzomib + Tozasertib; first compound 0.003162 µM) was 0.469, the relative viability (Carfilzomib + Tozasertib; first compound 0.01 µM) was 0.327 and the relative viability (Carfilzomib + Tozasertib; first compound 0.03162 µM) was 0.292. For the same cell line, the relative viability (Carfilzomib + Tozasertib; first compound 0.1 µM) was 0.123, the relative viability (Olaparib + OSI-027; first compound 0.08 µM) was 0.279 and the relative viability (Olaparib + OSI-027; first compound 0.253 µM) was 0.295. It also gave a relative viability (Olaparib + OSI-027; first compound 2.53 µM) of 0.29 and a relative viability (Olaparib + OSI-027; first compound 8 µM) of 0.243.
